Results reported in patent US7541367B2, “3-benzoimidazolyl-pyrazolopyridines useful in treating kinase disorders” (Janssen Pharmaceutica, N.V., priority 2005, dated 2009).

Assays:
[1] = biological target: T1, CDK1 (Homo sapiens, UniProt P06493); assay: CDK-1 kinase screening assay (33P-ATP FlashPlate); type: biochemical; details: human CDK1 with cyclin B; 10 μM ATP; 1 hr at 30° C
T1 construct: purchased New England Biolabs, Beverly, Mass; 6020; host or cells: insect cells

[2] = biological target: T2, VEGF-R2 (Rattus norvegicus, UniProt O08775); assay: VEGF-R2 kinase screening assay (33P-ATP FlashPlate); type: biochemical; details: rat VEGF-R2 kinase domain; 10 μM ATP; 1 hr at 30° C;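 note: Read-out is ³³P incorporation from ³³P-γ-ATP into biotinylated peptide substrate captured on streptavidin FlashPlate, counted by scintillation, 1% DMSO final, inhibition scaled between per-plate maximum and minimum signals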
T2 construct: polyhistidine (N)

[3] = biological target: T3, HER2 (Homo sapiens, UniProt P04626); assay: HER2 kinase screening assay (33P-ATP FlashPlate); type: biochemical; details: GST-HIS6 HER-2 aa 679 to 1255; 10 μM ATP; 1 hr at 30° C;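 note: Biotin-poly(GT) 4:1 peptide captured on streptavidin FlashPlate, 33P transfer from γ-ATP read by scintillation counting, lower incorporation means inhibition, 1% DMSO final, 100 µL reaction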
T3 construct: GST (Glutathione-S-Transferase) (N); HIS6 (N); thrombin cleavage site (N); purchased Proqinase, Freiburg, Germany

[4] = biological target: T4, Aurora-A (Mus musculus, UniProt P97477); assay: Aurora-A kinase screening assay (33P-ATP FlashPlate); type: biochemical; details: 10 μM ATP, 1 hr at 30° C;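 note: His-tagged mouse Aurora-A phosphorylating a biotinylated peptide captured on streptavidin plates, read as 33P uptake by scintillation counting, 1% DMSO, inhibition scaled between per-plate maximum and minimum signals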
T4 construct: polyhistidine (N)
T4 sequence (P97477 1-395): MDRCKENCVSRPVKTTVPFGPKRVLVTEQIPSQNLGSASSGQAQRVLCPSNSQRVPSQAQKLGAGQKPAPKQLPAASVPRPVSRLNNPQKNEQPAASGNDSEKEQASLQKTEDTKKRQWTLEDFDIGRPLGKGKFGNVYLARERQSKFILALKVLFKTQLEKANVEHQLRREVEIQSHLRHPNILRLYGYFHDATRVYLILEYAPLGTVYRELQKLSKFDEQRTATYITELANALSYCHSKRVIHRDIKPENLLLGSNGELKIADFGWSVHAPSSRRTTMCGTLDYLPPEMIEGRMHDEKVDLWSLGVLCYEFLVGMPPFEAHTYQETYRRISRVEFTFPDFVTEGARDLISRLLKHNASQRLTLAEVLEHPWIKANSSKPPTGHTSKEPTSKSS

[5] = biological target: T5, RET (Homo sapiens, UniProt P07949); assay: RET kinase screening assay (33P-ATP FlashPlate); type: biochemical; details: human RET kinase domain; 10 μM ATP; 1 hr at 30° C;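 note: biotinylated peptide substrate captured on streptavidin FlashPlate, 33P phosphate transfer read by scintillation counting, 1% DMSO, lower incorporation means inhibition, percent relative to per-plate maximum and minimum signals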
T5 construct: polyhistidine (N)
T5 sequence (P07949 658-1114 limits assumed): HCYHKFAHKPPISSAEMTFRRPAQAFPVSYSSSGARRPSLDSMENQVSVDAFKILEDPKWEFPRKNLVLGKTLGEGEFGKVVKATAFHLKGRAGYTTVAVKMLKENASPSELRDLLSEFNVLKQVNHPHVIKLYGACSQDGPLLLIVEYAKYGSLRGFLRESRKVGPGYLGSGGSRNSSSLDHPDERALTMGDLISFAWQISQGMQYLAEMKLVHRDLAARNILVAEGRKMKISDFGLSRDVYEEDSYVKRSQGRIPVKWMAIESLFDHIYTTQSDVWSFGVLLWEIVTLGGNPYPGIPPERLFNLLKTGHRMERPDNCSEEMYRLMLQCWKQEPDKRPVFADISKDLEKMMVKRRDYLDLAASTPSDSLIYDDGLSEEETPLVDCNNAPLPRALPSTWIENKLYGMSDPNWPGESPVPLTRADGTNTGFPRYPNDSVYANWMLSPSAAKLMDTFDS

[6] = biological target: T6, c-Src kinase (Homo sapiens, UniProt P12931); assay: c-Src Kinase Assay; type: biochemical; details: 5 μM ATP
T6 construct: purchased Upstate Biotechnology, Lake Placid, N.Y
How it was run: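 Human c-Src phosphorylated Cdc2 peptide (100 μM) […]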

[7] = biological target: T7, Lyn kinase (Homo sapiens, UniProt P07948); assay: Lyn Kinase Assay; type: biochemical; details: 5 μM ATP
T7 construct: purchased Upstate Biotechnology, Lake Placid, N.Y
Description: Test compound in 100% DMSO (0.5 μL) was added to the appropriate wells. Diluted Lyn kinase (human) (Accession Number EMBL M16038) (Upstate Biotechnology, Lake Placid, N.Y.) (diluted in a buffer consisting of 50 mM Tris at pH 7.5, 0.1 mM EGTA, Sodium Vanadate (0.1 mM), β-mercaptoethanol (0.1%) and 1 mg/mL bovine serum albumin) (2.5 μL) was added to the wells to initiate the reactions.
The reaction plates were incubated at 30° C. for 40 min. The reaction was terminated by the addition of a 3% phosphoric acid solution (5 μL). The reaction product (10 μL) was spotted onto a P30 filtermat and washed for 5 minutes in phosphoric acid (75 mM). The wash sequence was repeated two more times, followed with one final wash in methanol. The plates were then dried, sealed and read on the TopCount scintillation counter after adding 30 μL scintillation fluid.
A maximum and minimum signal for the assay was determined on each plate. The percent inhibition of a test compound was calculated according to the formula: […]
For a series of test concentrations, the IC50 was derived by graphing percent inhibition against the log of the concentrations tested for a given compound with results shown in Table 3
For compounds with multiple values, each value represents a separate assay result.

[8] = system: HeLa cervical adenocarcinoma; assay: Cell Proliferation Inhibition Assay (14C-thymidine incorporation), HeLa; type: cell-based; details: Homo sapiens, HeLa, HeLa cells;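 note: test compound in DMSO added to cells seeded in scintillating 96-well plates, DMSO-only wells as control, uptake of methyl 14C-thymidine into new DNA counted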
[9] = system: A375 malignant melanoma; assay: Cell Proliferation Inhibition Assay (14C-thymidine incorporation), A375; type: cell-based; details: Homo sapiens, A-375, A375 cells;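 note: proliferation measured by radiolabelled thymidine uptake into new DNA, counted in scintillating 96-well plates, compound-treated wells compared with DMSO-only control wells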
[10] = system: HCT-116 colon carcinoma; assay: Cell Proliferation Inhibition Assay (14C-thymidine incorporation), HCT-116; type: cell-based; details: Homo sapiens, HCT-116, HCT-116 cells;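 note: proliferation measured as methyl 14C-thymidine uptake into new DNA, counted in 96-well scintillating microplates, compared with DMSO-only control wells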
[11] = system: Human melanoma A375 cells; assay: In Vivo Models - Inhibition of Tumor Growth (A375 xenograft); details: female athymic mice, 25 mg/kg i.p. daily
Description: The ability of test compounds to inhibit unregulated growth of human tumor cells in vivo was evaluated by implanting human tumor cells into the hindflank of athymic mice, administering a test compound and then quantifying any change in tumor size.
Certain compounds at particular doses produced adverse effects in this model. One skilled in the art would be able to establish the effective amount of compound required to achieve an effective therapeutic window.
Human melanoma A375 cells were implanted subcutaneously into the hindflank of female athymic mice (Charles River) and allowed to grow for 6-10 days. After a measurable tumor was established (as determined by baseline caliper measurement), the animal was administered an intraperitoneal (i.p.) dose of the test compound daily at 25 mg/kg for the length of the study. Tumor size was measured at certain intervals as shown in Table 5 and the degree of inhibition for a test compound was determined by comparing the reduction in tumor volume for drug-treated animals to that of untreated and vehicle-treated animals. The vehicle used was 20% hydroxypropyl β-cyclodextran.

T3 sequence (P04626 679-1255): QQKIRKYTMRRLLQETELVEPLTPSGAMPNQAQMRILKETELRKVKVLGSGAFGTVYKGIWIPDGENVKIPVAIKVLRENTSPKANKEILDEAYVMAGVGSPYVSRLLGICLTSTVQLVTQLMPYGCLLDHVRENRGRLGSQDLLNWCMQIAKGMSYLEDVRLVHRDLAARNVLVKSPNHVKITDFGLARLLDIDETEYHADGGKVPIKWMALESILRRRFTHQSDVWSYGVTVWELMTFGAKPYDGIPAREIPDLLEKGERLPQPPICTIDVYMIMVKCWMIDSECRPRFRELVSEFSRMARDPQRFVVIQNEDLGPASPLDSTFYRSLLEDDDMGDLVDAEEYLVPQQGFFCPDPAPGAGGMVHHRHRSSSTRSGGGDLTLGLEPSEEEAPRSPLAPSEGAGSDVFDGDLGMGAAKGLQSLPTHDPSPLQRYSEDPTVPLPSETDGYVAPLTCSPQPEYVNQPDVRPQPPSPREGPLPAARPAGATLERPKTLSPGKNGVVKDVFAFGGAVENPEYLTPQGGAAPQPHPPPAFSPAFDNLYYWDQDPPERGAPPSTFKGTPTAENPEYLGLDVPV
T1 sequence (P06493 whole entry): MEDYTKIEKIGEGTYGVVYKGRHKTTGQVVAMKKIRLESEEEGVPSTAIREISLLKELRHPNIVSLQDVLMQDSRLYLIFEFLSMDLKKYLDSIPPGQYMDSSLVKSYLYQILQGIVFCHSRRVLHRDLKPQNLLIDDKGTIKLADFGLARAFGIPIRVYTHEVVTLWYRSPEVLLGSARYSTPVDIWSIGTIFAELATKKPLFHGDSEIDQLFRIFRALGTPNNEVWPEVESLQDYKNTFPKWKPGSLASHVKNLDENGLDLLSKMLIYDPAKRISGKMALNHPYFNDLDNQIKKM
T1 sequence (P14635 whole entry partner): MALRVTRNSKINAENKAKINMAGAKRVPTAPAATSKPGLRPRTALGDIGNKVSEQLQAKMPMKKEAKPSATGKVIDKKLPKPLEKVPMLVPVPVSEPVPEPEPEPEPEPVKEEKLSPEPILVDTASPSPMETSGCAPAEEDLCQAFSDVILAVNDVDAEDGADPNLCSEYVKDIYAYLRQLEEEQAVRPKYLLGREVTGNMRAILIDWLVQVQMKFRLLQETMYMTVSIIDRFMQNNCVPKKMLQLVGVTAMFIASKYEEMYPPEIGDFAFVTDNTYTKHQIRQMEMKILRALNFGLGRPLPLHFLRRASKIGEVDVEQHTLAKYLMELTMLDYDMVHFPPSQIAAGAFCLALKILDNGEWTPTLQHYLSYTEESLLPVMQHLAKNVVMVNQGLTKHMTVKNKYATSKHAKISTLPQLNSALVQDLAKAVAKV
T6 sequence (P12931 whole entry): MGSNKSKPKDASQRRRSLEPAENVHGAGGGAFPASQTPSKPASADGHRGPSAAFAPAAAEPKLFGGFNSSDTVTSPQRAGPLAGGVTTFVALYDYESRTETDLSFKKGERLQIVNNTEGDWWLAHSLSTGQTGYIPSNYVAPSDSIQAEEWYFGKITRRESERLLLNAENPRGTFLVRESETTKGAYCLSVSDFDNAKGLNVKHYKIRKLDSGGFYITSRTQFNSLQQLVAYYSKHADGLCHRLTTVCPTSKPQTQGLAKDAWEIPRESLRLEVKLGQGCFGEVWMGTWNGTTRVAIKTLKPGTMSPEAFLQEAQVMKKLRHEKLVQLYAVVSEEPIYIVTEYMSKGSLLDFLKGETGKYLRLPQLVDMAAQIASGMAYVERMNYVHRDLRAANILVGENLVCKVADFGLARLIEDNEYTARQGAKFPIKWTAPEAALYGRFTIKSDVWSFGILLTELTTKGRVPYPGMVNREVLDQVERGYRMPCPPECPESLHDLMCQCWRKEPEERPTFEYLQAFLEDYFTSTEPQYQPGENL
T2 sequence (O08775 786-1343): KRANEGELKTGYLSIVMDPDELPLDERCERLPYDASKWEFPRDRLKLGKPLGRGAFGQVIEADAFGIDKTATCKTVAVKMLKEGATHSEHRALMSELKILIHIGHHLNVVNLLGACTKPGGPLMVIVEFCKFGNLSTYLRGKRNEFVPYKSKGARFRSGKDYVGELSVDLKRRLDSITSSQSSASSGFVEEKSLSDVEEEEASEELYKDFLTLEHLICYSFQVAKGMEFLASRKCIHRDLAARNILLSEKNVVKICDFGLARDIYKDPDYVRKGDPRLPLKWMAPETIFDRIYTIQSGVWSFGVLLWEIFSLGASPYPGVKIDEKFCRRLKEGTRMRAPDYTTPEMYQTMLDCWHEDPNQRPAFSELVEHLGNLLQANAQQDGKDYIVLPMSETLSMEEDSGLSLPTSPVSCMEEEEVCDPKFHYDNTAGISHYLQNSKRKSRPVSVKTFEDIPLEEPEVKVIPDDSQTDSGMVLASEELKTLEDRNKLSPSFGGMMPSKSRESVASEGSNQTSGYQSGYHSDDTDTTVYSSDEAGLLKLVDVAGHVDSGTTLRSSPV
T7 sequence (P07948 whole entry): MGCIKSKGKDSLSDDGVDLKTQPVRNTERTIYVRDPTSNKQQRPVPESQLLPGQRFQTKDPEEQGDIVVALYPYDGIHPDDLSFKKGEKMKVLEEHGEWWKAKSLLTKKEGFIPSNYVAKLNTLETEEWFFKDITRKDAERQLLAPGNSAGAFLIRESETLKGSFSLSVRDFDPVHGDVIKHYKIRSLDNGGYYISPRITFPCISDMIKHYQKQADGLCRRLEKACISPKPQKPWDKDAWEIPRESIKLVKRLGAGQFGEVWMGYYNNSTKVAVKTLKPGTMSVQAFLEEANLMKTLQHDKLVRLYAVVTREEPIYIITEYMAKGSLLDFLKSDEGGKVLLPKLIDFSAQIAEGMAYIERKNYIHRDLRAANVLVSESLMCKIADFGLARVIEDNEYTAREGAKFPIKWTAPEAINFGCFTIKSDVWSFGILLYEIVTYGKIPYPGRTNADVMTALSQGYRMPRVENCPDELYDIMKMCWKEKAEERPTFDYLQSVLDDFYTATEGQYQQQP

SMILES | IC50 [1] [nM] | IC50 [2] [nM] | IC50 [3] [nM] | IC50 [4] [nM] | IC50 [5] [nM] | IC50 [6] [nM] | IC50 [7] [nM] | IC50 [8] [nM] | IC50 [9] [nM] | IC50 [10] [nM] | Tumor volume ([11]; Day 1) [mm^3] | Tumor volume ([11]; Day 4) [mm^3] | Tumor volume ([11]; Day 8) [mm^3] | Tumor volume ([11]; Day 11) [mm^3] | Tumor volume ([11]; Day 14) [mm^3]
COCc1cccc2[nH]c(-c3n[nH]c4ncc(-c5cncc(OC)c5)cc34)nc12 [Cpd 64, 3-(4-methoxymethyl-1H-benzoimidazol-2-yl)-5-(5-methoxy-pyridin-3-yl)-1H-pyrazolo[3,4-b]pyridine] | 80.3 | 160 | > 100000 | ~10000 | > 100000 | 621 | 4060 | 1570 | 11.3 | 26.1 |  |  |  |  | 
COCc1cccc2[nH]c(-c3n[nH]c4ncc(-c5ccncc5)cc34)nc12 [Cpd 65, 3-(4-methoxymethyl-1H-benzoimidazol-2-yl)-5-pyridin-4-yl-1H-pyrazolo[3,4-b]pyridine] | > 1000 | 115 | > 100000 | > 1000 | > 100000 | 315 | 277 | 3090 | 22.6 | 62 |  |  |  |  | 
COCc1cccc2[nH]c(-c3n[nH]c4ncc(-c5ccc(N6CCNCC6)nc5)cc34)nc12 [Cpd 69, 3-(4-methoxymethyl-1H-benzoimidazol-2-yl)-5-(6-piperazin-1-yl-pyridin-3-yl)-1H-pyrazolo[3,4-b]pyridine] | > 10000 | ~1000 | > 100000 | > 1000 | > 100000 | 597 | 2890 | 1730 | 18.5 | 77 |  |  |  |  | 
COCc1cccc2[nH]c(-c3n[nH]c4ncc(-c5ccc(F)nc5)cc34)nc12 [Cpd 71, 5-(6-fluoro-pyridin-3-yl)-3-(4-methoxymethyl-1H-benzoimidazol-2-yl)-1H-pyrazolo[3,4-b]pyridine] | 375 | ~1000 | > 100000 | > 10000 | > 100000 | 278 | 9010 | 2260 | 150 | 283 |  |  |  |  | 
COCc1cccc2[nH]c(-c3n[nH]c4ncc(-c5cncc(C=NO)c5)cc34)nc12 [Cpd 72, 5-[3-(4-methoxymethyl-1H-benzoimidazol-2-yl)-1H-pyrazolo[3,4-b]pyridin-5-yl]-pyridine-3-carbaldehyde oxime] | 23.6 | > 100000 | > 100000 | > 10000 | > 100000 | 375 | 1050 | 640 | 10.2 | 29.2 |  |  |  |  | 
CCCNCc1cncc(-c2cnc3[nH]nc(-c4nc5c(COC)cccc5[nH]4)c3c2)c1 [Cpd 78, {5-[3-(4-methoxymethyl-1H-benzoimidazol-2-yl)-1H-pyrazolo[3,4-b]pyridin-5-yl]-pyridin-3-ylmethyl}-propyl-amine] | 7.4 |  |  | 3990 |  |  |  |  |  |  | 95.4 | 113.6 | 329.3 | 558 | 856.9
COCc1cccc2[nH]c(-c3n[nH]c4ncc(-c5cncc(CNC6CCN(C)CC6)c5)cc34)nc12 [Cpd 80, {5-[3-(4-methoxymethyl-1H-benzoimidazol-2-yl)-1H-pyrazolo[3,4-b]pyridin-5-yl]-pyridin-3-ylmethyl}-(1-methyl-piperidin-4-yl)-amine] | 875 | 2080 | > 100000 | > 10000 | > 100000 | 211 | 192 | > 10000 | 397 | 2310 |  |  |  |  | 
CCNCc1cncc(-c2cnc3[nH]nc(-c4nc5cc(N6CCN(C)CC6)ccc5[nH]4)c3c2)c1 [Cpd 82, ethyl-(5-{3-[5-(4-methyl-piperazin-1-yl)-1H-benzoimidazol-2-yl]-1H-pyrazolo[3,4-b]pyridin-5-yl}-pyridin-3-ylmethyl)-amine] | 3.05 | 25 | 1070 | 283 |  | 712 | 415 | 474 | 627 | 543 | 97.7 | 222 | 455.5 | 742.4 | 1323.6
CN1CCN(c2ccc3[nH]c(-c4n[nH]c5ncc(-c6cncc(CN7CCOCC7)c6)cc45)nc3c2)CC1 [Cpd 84, 3-[5-(4-methyl-piperazin-1-yl)-1H-benzoimidazol-2-yl]-5-(5-morpholin-4-ylmethyl-pyridin-3-yl)-1H-pyrazolo[3,4-b]pyridine] | 32.2 | ~100 | 1850 | 87.3 | > 1000 | 5.18 | 9.65 | 1880 | 2530 | 739 |  |  |  |  | 
CCNCc1cncc(-c2cnc3[nH]nc(-c4nc5ccc(F)cc5[nH]4)c3c2)c1 [Cpd 106, ethyl-{5-[3-(6-fluoro-1H-benzoimidazol-2-yl)-1H-pyrazolo[3,4-b]pyridin-5-yl]-pyridin-3-ylmethyl}-amine] | 0.7 | 154 | 5120 | 803 |  |  |  | 58.6 | 51.2 | 93.7 | 95.4 | 94.7 | 318.6 | 558.3 | 896.8
CCNCc1cncc(-c2cnc3[nH]nc(-c4nc5cc(F)c(F)cc5[nH]4)c3c2)c1 [Cpd 107, {5-[3-(5,6-difluoro-1H-benzoimidazol-2-yl)-1H-pyrazolo[3,4-b]pyridin-5-yl]-pyridin-3-ylmethyl}-ethyl-amine] | 1.1 | ~100 | 3600 | > 1000 |  |  |  | 138 | 46.1 | 94.7 | 95.4 |  |  |  | 
